Test results from ChEMBL document CHEMBL3393039, “Anthranilic acid derivatives as nuclear receptor modulators--development of novel PPAR selective and dual PPAR/FXR ligands” (Bioorg Med Chem, 2015).
Activity calls are given as the source filed them. The calls are words filed in the database; no cut-off is given here.

Legend:
[1] = biological target: T1, Peroxisome proliferator-activated receptor gamma (Homo sapiens) (UniProt P37231); assay: Transactivation of Gal4-tagged PPARgamma ligand binding domain (unknown origin) expressed in COS7 cells measured after overnight incubation by luciferase reporter gene assay relative to piaglitazone; assay type: cell-based; details: Chlorocebus aethiops; COS-7
T1 sequence (whole entry): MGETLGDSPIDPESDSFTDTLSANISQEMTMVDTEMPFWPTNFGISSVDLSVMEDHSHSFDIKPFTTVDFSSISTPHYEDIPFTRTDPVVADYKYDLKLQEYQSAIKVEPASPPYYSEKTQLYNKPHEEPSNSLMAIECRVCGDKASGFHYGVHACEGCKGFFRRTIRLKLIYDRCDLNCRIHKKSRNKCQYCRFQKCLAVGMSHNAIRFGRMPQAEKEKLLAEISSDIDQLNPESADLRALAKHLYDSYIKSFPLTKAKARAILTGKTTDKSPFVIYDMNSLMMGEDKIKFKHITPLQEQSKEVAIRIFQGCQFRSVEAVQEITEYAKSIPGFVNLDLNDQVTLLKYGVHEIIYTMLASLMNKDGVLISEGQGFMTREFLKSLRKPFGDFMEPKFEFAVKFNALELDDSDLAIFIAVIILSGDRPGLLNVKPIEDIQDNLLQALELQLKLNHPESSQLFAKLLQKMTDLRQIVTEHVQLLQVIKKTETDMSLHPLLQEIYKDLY

[2] = biological target: T2, Peroxisome proliferator-activated receptor gamma (Homo sapiens, UniProt P37231); assay: Transactivation of Gal4-tagged PPARgamma ligand binding domain (unknown origin) expressed in COS7 cells measured after overnight incubation by luciferase reporter gene assay; assay type: cell-based, COS-7
T2 sequence (P37231 whole entry): T1 sequence (whole entry)

[3] = biological target: T3, Peroxisome proliferator-activated receptor alpha (Homo sapiens) (UniProt Q07869); assay: Transactivation of Gal4-tagged PPARalpha ligand binding domain (unknown origin) expressed in COS7 cells at 30 uM measured after overnight incubation by luciferase reporter gene assay; assay type: cell-based; details: COS-7
T3 sequence (whole entry): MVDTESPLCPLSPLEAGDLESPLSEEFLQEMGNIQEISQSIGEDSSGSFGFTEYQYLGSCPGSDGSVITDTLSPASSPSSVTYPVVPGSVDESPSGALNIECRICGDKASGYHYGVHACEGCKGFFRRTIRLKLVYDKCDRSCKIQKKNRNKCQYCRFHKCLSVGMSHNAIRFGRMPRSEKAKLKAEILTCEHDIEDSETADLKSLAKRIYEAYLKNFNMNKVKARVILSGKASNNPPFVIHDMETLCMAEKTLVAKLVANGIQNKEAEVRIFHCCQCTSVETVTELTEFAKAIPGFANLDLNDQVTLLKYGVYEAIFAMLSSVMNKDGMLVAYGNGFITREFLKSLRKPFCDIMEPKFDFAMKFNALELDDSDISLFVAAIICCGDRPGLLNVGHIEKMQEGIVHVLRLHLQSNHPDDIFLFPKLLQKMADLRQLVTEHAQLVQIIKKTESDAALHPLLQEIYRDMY

[4] = biological target: T4, Peroxisome proliferator-activated receptor delta (Homo sapiens) (UniProt Q03181); assay: Transactivation of Gal4-tagged PPARdelta ligand binding domain (unknown origin) expressed in COS7 cells at 30 uM measured after overnight incubation by luciferase reporter gene assay; assay type: cell-based; details: COS-7
T4 sequence (whole entry): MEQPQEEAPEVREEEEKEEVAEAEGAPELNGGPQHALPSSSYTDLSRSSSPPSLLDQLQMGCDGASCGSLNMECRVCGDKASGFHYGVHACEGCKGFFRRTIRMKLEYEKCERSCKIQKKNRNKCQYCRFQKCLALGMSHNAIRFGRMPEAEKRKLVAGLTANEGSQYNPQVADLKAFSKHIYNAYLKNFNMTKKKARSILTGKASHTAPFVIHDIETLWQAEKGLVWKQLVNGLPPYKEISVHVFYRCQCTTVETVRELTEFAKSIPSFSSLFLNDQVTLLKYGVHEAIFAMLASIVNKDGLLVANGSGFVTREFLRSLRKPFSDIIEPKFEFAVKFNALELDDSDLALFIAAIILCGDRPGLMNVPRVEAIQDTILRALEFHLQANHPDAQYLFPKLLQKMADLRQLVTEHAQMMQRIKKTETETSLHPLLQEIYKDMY

[5] = biological target: T5, Bile acid receptor (Homo sapiens) (UniProt Q96RI1); assay: Transactivation of human FXR expressed in human HeLa cells at 30 uM incubated for 24 hrs by luciferase reporter gene assay; assay type: cell-based
T5 sequence (whole entry): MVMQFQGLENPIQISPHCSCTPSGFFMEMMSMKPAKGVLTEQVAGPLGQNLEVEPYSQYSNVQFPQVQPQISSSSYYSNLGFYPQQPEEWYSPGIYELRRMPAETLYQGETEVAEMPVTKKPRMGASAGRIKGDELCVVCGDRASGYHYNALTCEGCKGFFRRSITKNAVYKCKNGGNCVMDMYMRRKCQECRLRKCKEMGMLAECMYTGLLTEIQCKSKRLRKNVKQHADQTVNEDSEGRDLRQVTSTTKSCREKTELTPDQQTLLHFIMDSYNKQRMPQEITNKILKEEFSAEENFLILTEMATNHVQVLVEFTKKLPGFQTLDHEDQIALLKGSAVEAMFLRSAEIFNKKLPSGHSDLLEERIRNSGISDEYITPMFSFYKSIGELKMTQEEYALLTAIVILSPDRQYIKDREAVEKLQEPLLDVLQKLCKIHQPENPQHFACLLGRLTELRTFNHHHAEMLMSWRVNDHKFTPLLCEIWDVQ

[6] = biological target: T1, Peroxisome proliferator-activated receptor gamma (Homo sapiens); assay: Transactivation of Gal4-tagged PPARgamma ligand binding domain (unknown origin) expressed in COS7 cells at 30 uM measured after overnight incubation by luciferase reporter gene assay; assay type: cell-based; details: COS-7
[7] = biological target: T5, Bile acid receptor (Homo sapiens); assay: Transactivation of human FXR expressed in human HeLa cells incubated for 24 hrs by luciferase reporter gene assay relative to GW4064; assay type: cell-based
[8] = biological target: T6, Peroxisome proliferator-activated receptor alpha (Homo sapiens, UniProt Q07869); assay: Transactivation of Gal4-tagged PPARalpha ligand binding domain (unknown origin) expressed in COS7 cells measured after overnight incubation by luciferase reporter gene assay; assay type: cell-based, COS-7
T6 sequence (Q07869 whole entry): T3 sequence (whole entry)

[9] = biological target: T4, Peroxisome proliferator-activated receptor delta (Homo sapiens); assay: Transactivation of Gal4-tagged PPARdelta ligand binding domain (unknown origin) expressed in COS7 cells measured after overnight incubation by luciferase reporter gene assay relative to L165,041; assay type: cell-based; details: Chlorocebus aethiops; COS-7
[10] = biological target: T7, Peroxisome proliferator-activated receptor delta (Homo sapiens, UniProt Q03181); assay: Transactivation of Gal4-tagged PPARdelta ligand binding domain (unknown origin) expressed in COS7 cells measured after overnight incubation by luciferase reporter gene assay; assay type: cell-based, COS-7
T7 sequence (Q03181 whole entry): T4 sequence (whole entry)

Compound | max activation [1] | EC50 [2] | Activity [3] | Activity [4] | Activity [5] | Activity [6] | max activation [7] | EC50 [8] | max activation [9] | EC50 [10]
O=C(O)CCCNC(=O)c1ccccc1NC(=O)c1ccc(-c2ccccc2)cc1 | 135% | 13 µM | inactive | inactive | inactive |  |  |  |  | 
O=C(O)CCCCNC(=O)c1ccccc1NC(=O)c1ccc2ccccc2c1 | 269% | 26 µM | inactive | inactive |  |  |  |  |  | 
COc1cccc(NC(=O)c2ccccc2NC(=O)c2ccc(C(C)(C)C)cc2)c1 |  |  | inactive | inactive |  | inactive | 13% |  |  | 
CC(C)(C)c1ccc(C(=O)Nc2ccccc2C(=O)NCCCC(=O)O)cc1 |  |  | inactive | inactive |  | inactive |  |  |  | 
CC(C)(C)c1ccc(C(=O)Nc2ccccc2C(=O)Nc2cccc(C(=O)O)c2)cc1 | 348% | 3.9 µM |  | inactive |  |  | 9.4% | 1.3 µM |  | 
COc1ccc(NC(=O)c2ccccc2NC(=O)c2ccc(C(C)(C)C)cc2)cc1C(=O)O | 96% | 4.4 µM |  | inactive |  |  | 19% | 0.74 µM |  | 
CC(C)(C)c1ccc(C(=O)Nc2ccccc2C(=O)Nc2cccc(CC(=O)O)c2)cc1 | 121% | 6.2 µM |  |  |  |  | 26% | 4.4 µM | 46% | 5.4 µM
CC(C)(C)c1ccc(C(=O)Nc2cccc(Cl)c2C(=O)Nc2cccc(C(=O)O)c2)cc1 |  |  | inactive | inactive | inactive | inactive |  |  |  | 
CC(C)(C)c1ccc(C(=O)Nc2c(Cl)cccc2C(=O)Nc2cccc(C(=O)O)c2)cc1 |  |  | inactive | inactive | inactive | inactive |  |  |  | 
O=C(O)CCCNC(=O)c1ccccc1NC(=O)C(c1ccccc1)c1ccccc1 |  |  | inactive | inactive | inactive | inactive |  |  |  | 
O=C(O)CCCNC(=O)c1ccccc1NC(=O)c1cccc(-c2ccccc2)c1 | 229% | 37 µM |  | inactive | inactive |  |  | 10 µM |  | 
Cc1c(NC(=O)c2ccccc2NC(=O)c2ccc(C(C)(C)C)cc2)cccc1C(=O)O | 70% | 13.5 µM | inactive | inactive |  |  | 19% |  |  | 
CN(C(=O)c1ccc2ccccc2c1)c1ccccc1C(=O)NCCCC(=O)O |  |  | inactive | inactive | inactive | inactive |  |  |  | 
COc1ccc(C(=O)Nc2ccccc2C(=O)Nc2cccc(CC(=O)O)c2)cc1OC |  |  | inactive | inactive | inactive | inactive |  |  |  | 
O=C(O)c1cccc(NC(=O)c2ccccc2NC(=O)c2ccc3c(c2)OCO3)c1 | 221% | 25 µM |  | inactive |  |  | 12% | 19 µM |  | 
O=C(O)c1cccc(NC(=O)c2ccccc2NC(=O)c2ccc(C(F)(F)F)c(F)c2)c1 | 240% | 6.9 µM |  |  |  |  | 32% | 2.2 µM | 37% | 3 µM
O=C(O)c1cccc(NC(=O)c2ccccc2NC(=O)c2ccc(Br)cc2)c1 | 58% | 4.5 µM |  |  |  |  | 14.3% | 3.6 µM | 44% | 12 µM
O=C(O)CCCNC(=O)c1ccccc1NC(=O)c1ccc2ccccc2c1 | 432% | 18.1 µM | inactive | inactive |  |  |  |  |  | 
CC(C)(C)c1ccc(C(=O)Nc2ccccc2C(=O)Nc2ccc(Cl)c(C(=O)O)c2)cc1 | 98% | 5.4 µM |  | inactive |  |  | 19% | 9.1 µM |  | 
CC(C)(C)c1ccc(C(=O)Nc2ccccc2C(=O)Nc2ccc(Br)c(C(=O)O)c2)cc1 | 82% | 6.3 µM |  | inactive |  |  | 16% | 4.1 µM |  | 
O=C(O)c1ccc(NC(=O)c2ccccc2NC(=O)c2ccc3ccccc3c2)cc1 | 639% | 21 µM | inactive | inactive |  |  |  |  |  | 
N#Cc1ccc(C(=O)Nc2ccccc2C(=O)Nc2cccc(CC(=O)O)c2)cc1 |  |  | inactive | inactive | inactive | inactive |  |  |  | 
O=C(O)c1cccc(NC(=O)c2ccccc2NC(=O)c2ccc(C(F)(F)F)cc2)c1 | 384% | 8.5 µM |  |  |  |  | 26% | 5.8 µM | 46% | 3.2 µM
O=C(O)c1cccc(NC(=O)c2ccccc2NC(=O)c2ccc3ccccc3c2)c1 | 126% | 5.5 µM |  |  |  |  |  | 1.96 µM | 51% | 4.7 µM
O=C(O)CCCNC(=O)c1ccccc1NC(=O)c1ccccc1-c1ccccc1 | 45% | 23 µM | inactive | inactive | inactive |  |  |  |  | 
CC(C)(C)c1ccc(C(=O)Nc2ccccc2C(=O)Nc2cccc(C#N)c2)cc1 |  |  | inactive | inactive |  | inactive | 18% |  |  | 
CN(CCCC(=O)O)C(=O)c1ccccc1NC(=O)c1ccc2ccccc2c1 |  |  | inactive | inactive | inactive | inactive |  |  |  | 
COc1ccc(C(=O)O)cc1NC(=O)c1ccccc1NC(=O)c1ccc(C(C)(C)C)cc1 | 154% | 4.5 µM |  | inactive |  |  | 15% | 2.9 µM |  | 
